Source: ChEMBL document CHEMBL3991601, “The target landscape of clinical kinase drugs” (Science, 2017)
Calls of active or inactive are those of the source. Rule as the data show it, for most assays here: actives have a measured Kd and inactives only a lower limit.

What was measured:
DNA topoisomerase 2-beta = DNA topoisomerase 2-beta (Homo sapiens, UniProt Q02880)
TGF-beta receptor type-2 = TGF-beta receptor type-2 (Homo sapiens, UniProt P37173)
[1] = target: Dual specificity mitogen-activated protein kinase kinase 2 (Homo sapiens, UniProt P36507)
[2] = target: Mitotic checkpoint serine/threonine-protein kinase BUB1 (Homo sapiens, UniProt O43683)
[3] = target: Cyclin-dependent kinase 12 (Homo sapiens, UniProt Q9NYV4)
[4] = target: Ribosomal protein S6 kinase alpha-5 (Homo sapiens, UniProt O75582)
[5] = target: 5'-AMP-activated protein kinase catalytic subunit alpha-1 (Homo sapiens, UniProt Q13131)
[6] = target: Tyrosine-protein kinase BTK (Homo sapiens, UniProt Q06187)
[7] = target: Proto-oncogene tyrosine-protein kinase Src (Homo sapiens, UniProt P12931)
[8] = target: Inosine-5'-monophosphate dehydrogenase 2 (Homo sapiens, UniProt P12268)
[9] = target: T1, Ferrochelatase, mitochondrial (Homo sapiens, UniProt P22830)
T1 sequence (P22830 whole entry): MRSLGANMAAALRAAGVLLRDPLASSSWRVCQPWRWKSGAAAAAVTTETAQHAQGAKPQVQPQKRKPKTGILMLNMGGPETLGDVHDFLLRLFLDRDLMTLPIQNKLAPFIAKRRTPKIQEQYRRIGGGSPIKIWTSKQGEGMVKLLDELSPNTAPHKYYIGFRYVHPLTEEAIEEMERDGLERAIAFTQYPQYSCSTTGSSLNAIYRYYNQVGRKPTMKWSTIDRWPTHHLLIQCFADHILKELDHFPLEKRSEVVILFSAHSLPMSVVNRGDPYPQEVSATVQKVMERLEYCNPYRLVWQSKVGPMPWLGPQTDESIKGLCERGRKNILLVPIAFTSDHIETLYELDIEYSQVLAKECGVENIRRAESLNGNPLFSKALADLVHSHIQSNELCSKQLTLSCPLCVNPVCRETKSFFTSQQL

[10] = target: Maternal embryonic leucine zipper kinase (Homo sapiens, UniProt Q14680)
[11] = target: T2, Uncharacterized protein FLJ45252 (Homo sapiens, UniProt Q6ZSR9); conditions: read-out: Kd apparent; k-562, colo 205, sk-n-be(2) and mv-4-11
T2 sequence (Q6ZSR9 whole entry): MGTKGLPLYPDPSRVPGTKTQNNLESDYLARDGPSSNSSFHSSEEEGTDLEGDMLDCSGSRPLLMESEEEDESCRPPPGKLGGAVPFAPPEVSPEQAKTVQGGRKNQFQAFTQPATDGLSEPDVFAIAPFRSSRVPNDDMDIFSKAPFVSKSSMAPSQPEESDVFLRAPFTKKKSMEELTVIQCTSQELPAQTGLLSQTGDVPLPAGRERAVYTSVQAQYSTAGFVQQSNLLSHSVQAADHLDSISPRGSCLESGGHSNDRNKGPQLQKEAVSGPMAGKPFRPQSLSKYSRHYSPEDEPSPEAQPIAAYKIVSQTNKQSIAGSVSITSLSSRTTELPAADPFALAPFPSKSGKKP

[12] = target: T3, Acyl-CoA dehydrogenase family member 11 (Homo sapiens, UniProt Q709F0)
T3 sequence (Q709F0 whole entry): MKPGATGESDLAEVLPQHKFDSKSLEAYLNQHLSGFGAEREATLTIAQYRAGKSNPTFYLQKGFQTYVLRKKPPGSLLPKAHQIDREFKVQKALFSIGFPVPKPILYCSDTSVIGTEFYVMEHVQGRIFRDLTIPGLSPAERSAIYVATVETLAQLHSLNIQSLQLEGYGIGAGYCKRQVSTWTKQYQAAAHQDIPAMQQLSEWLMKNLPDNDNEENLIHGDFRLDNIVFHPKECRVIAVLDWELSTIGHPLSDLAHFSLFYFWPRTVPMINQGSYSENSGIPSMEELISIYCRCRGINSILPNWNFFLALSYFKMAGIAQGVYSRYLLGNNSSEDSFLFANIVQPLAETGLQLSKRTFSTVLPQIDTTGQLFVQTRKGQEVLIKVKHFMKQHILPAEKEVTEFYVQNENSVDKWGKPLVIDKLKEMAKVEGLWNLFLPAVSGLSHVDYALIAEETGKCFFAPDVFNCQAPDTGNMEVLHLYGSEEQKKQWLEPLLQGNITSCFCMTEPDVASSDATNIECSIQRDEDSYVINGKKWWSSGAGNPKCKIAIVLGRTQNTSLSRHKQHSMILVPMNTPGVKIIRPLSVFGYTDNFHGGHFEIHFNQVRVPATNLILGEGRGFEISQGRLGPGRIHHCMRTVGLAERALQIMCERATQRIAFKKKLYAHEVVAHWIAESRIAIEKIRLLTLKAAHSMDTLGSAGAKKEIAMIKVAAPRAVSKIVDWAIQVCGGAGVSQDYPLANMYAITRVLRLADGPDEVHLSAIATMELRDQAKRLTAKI

[13] = target: T4, Tyrosine-protein kinase Tec (Homo sapiens, UniProt P42680)
T4 sequence (P42680 whole entry): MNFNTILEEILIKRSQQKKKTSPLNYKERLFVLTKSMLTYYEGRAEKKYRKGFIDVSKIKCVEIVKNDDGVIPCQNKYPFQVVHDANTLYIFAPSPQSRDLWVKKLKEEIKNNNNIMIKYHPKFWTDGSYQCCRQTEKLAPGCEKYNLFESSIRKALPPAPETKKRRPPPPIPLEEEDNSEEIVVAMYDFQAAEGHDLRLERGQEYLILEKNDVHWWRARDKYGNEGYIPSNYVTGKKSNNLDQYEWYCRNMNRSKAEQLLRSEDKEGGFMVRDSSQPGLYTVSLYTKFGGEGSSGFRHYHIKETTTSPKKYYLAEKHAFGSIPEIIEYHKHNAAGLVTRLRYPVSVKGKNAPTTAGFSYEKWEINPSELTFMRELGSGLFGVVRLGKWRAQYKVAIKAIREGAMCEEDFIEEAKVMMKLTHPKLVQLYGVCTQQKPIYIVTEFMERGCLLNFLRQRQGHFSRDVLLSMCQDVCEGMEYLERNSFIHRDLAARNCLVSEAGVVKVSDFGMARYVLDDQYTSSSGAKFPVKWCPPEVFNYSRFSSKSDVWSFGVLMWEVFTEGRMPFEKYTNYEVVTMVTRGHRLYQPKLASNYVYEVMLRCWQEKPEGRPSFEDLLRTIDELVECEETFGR

[14] = target: Mitogen-activated protein kinase 9 (Homo sapiens, UniProt P45984)
Also: in the data inactive means no Kd found up to 30 µM.

Sequence of Mitogen-activated protein kinase 9 (P45984 whole entry): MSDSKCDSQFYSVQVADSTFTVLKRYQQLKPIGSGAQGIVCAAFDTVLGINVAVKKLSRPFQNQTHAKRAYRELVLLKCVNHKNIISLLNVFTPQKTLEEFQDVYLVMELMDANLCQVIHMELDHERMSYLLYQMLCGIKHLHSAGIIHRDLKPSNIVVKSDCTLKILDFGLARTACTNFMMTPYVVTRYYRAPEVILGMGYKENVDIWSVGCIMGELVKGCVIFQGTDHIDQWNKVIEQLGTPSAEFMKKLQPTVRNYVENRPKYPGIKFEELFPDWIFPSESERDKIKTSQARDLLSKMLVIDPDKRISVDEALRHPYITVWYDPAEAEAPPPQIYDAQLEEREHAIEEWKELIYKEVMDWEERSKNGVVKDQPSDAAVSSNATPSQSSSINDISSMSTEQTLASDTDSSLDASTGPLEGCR
Sequence of Cyclin-dependent kinase 12 (Q9NYV4 whole entry): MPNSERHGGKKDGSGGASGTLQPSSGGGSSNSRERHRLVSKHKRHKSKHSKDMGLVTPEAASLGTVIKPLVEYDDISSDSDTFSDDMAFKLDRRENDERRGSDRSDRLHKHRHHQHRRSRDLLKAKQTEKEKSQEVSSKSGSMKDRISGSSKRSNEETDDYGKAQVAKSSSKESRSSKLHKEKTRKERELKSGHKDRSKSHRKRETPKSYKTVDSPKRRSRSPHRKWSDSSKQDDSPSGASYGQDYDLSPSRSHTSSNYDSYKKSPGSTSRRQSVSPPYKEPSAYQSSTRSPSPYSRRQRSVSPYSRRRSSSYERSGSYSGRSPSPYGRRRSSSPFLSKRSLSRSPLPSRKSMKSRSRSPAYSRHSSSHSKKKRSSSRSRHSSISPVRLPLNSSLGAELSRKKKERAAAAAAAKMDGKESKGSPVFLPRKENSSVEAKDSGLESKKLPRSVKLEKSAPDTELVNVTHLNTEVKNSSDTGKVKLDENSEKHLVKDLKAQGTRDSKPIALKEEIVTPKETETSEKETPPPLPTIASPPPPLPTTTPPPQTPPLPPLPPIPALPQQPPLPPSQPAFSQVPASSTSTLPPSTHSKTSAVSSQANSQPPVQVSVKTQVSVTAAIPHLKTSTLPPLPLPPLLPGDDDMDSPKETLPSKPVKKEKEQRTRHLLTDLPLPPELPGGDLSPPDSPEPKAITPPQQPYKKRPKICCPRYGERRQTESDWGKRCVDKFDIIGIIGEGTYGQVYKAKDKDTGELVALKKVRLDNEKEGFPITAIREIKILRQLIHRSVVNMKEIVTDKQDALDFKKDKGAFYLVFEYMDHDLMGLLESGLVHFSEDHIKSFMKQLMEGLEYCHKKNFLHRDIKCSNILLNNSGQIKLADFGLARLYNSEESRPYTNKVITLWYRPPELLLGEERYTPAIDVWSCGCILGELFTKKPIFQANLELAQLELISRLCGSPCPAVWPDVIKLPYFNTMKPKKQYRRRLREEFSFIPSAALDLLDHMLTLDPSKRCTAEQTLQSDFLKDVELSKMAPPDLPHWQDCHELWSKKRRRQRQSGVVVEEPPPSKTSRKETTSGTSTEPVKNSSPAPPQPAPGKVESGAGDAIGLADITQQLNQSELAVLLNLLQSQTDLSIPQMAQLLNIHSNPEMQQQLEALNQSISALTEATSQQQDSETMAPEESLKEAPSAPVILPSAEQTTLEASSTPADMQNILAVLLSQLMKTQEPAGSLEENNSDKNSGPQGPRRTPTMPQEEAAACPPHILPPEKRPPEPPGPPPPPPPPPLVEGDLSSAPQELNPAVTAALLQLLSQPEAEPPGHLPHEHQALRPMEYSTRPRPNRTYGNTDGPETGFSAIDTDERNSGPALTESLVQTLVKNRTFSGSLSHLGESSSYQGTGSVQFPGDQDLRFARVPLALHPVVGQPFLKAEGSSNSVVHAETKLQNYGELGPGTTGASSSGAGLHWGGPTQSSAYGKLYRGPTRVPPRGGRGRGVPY
Sequence of 5'-AMP-activated protein kinase catalytic subunit alpha-1 (Q13131 whole entry): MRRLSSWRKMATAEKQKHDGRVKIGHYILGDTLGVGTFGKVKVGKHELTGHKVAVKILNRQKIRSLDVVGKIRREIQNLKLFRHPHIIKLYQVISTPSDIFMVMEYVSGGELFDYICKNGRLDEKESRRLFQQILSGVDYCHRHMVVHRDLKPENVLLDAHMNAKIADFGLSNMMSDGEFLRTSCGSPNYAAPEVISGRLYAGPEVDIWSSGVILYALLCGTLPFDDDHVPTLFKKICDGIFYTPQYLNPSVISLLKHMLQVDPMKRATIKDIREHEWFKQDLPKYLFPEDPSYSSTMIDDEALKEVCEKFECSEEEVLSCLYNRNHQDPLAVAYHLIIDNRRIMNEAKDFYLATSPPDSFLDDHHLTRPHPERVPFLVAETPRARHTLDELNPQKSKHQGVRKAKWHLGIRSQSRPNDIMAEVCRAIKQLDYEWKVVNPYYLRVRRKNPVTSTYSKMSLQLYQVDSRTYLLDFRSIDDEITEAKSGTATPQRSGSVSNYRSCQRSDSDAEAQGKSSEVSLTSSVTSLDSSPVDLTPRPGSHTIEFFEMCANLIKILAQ
Sequence of Dual specificity mitogen-activated protein kinase kinase 2 (P36507 whole entry): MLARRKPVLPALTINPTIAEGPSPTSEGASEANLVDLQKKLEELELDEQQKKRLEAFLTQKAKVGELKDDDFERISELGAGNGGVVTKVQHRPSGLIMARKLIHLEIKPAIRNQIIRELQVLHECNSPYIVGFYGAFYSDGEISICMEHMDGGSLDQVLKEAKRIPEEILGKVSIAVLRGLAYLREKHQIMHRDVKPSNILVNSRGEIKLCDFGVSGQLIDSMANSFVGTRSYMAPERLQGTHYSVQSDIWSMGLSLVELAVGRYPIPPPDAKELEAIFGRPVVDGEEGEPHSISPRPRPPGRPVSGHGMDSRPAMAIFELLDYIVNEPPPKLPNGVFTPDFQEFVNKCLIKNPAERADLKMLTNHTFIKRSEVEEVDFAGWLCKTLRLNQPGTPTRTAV
Sequence of Maternal embryonic leucine zipper kinase (Q14680 whole entry): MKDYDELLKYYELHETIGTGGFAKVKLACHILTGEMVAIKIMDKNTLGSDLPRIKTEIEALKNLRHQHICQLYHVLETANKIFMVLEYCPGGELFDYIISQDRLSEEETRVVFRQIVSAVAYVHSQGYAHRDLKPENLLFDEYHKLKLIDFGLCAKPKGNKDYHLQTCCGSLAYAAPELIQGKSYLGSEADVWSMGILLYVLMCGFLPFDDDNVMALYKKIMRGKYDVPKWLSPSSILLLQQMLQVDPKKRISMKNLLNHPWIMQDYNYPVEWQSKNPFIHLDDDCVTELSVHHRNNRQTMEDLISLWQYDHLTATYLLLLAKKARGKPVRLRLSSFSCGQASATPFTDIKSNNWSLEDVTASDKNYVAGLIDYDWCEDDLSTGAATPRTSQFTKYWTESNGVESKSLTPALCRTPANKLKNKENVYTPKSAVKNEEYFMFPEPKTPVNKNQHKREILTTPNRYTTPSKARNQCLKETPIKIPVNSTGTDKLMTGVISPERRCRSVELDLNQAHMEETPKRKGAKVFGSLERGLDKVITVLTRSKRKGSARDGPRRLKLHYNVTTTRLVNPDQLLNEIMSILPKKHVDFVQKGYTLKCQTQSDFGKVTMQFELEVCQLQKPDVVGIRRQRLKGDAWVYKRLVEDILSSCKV
Sequence of Tyrosine-protein kinase BTK (Q06187 whole entry): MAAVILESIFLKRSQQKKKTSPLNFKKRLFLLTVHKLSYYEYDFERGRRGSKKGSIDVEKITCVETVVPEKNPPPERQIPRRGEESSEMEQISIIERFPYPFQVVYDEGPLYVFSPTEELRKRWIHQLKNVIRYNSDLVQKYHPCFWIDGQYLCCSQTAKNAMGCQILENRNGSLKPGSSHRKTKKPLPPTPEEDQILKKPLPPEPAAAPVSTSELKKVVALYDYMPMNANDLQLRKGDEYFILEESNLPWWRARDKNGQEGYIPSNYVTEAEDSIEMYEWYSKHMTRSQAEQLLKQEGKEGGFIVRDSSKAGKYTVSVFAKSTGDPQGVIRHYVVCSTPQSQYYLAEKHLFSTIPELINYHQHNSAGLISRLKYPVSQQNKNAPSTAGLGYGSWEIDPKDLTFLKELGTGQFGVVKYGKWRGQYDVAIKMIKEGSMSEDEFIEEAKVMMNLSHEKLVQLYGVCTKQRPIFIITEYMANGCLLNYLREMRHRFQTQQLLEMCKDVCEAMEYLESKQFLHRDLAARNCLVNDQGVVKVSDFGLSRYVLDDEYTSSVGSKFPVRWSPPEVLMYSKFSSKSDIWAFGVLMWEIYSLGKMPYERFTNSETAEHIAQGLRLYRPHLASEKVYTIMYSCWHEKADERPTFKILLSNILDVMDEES
Sequence of Proto-oncogene tyrosine-protein kinase Src (P12931 2-536 limits assumed): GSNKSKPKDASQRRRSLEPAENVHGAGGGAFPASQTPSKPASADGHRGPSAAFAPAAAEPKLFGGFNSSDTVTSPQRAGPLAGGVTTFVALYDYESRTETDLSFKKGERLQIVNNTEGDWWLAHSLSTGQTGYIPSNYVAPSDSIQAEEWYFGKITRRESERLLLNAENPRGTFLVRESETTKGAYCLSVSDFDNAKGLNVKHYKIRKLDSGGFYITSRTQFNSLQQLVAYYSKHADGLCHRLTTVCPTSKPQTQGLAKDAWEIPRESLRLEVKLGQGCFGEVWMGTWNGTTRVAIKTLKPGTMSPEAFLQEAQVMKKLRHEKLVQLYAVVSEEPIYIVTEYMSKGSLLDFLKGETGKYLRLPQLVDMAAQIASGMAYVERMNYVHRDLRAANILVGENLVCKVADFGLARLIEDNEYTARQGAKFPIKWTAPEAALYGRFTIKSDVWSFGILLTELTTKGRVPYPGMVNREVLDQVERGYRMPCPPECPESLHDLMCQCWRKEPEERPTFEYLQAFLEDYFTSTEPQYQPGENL

SMILES | Kd (DNA topoisomerase 2-beta) | Kd (TGF-beta receptor type-2) | Kd [1] | Kd [2] | Kd [3] | Kd [4] | Kd [5] | Kd [6] | Kd [7] | Kd [8] | Kd [9] | Kd [10] | Kd [11] | Kd [12] | Kd [13] | Kd [14]
COc1ccc(-c2ccc3c(N4CCOC[C@@H]4C)nc(N4CCOC[C@@H]4C)nc3n2)cc1CO [AZD-8055] | > 30 µM (inactive) | > 30 µM (inactive) | > 30 µM (inactive) | > 30 µM (inactive) | > 30 µM (inactive) | > 30 µM (inactive) | > 30 µM (inactive) | > 30 µM (inactive) | > 30 µM (inactive) | > 30 µM (inactive) | 6.9 µM (active) | > 30 µM (inactive) | > 30 µM (inactive) | > 30 µM (inactive) | > 30 µM (inactive) | > 30 µM (inactive)
Cn1cc(-c2ccc(F)c(C(F)(F)F)c2)nc1C1CCN(c2ncnc3[nH]ncc23)CC1 [LY-2584702] | > 30 µM (inactive) | > 30 µM (inactive) | > 30 µM (inactive) | > 30 µM (inactive) | > 30 µM (inactive) | > 30 µM (inactive) | > 30 µM (inactive) | > 30 µM (inactive) | > 30 µM (inactive) | > 30 µM (inactive) | > 30 µM (inactive) | > 30 µM (inactive) | > 30 µM (inactive) | > 30 µM (inactive) | > 30 µM (inactive) | > 30 µM (inactive)
COc1cc(CCc2cc(NC(=O)c3ccc(N4C[C@@H](C)N[C@@H](C)C4)cc3)n[nH]2)cc(OC)c1 [AZD-4547] | > 30 µM (inactive) | > 30 µM (inactive) | > 30 µM (inactive) | > 30 µM (inactive) | > 30 µM (inactive) | > 30 µM (inactive) | > 30 µM (inactive) | > 30 µM (inactive) | > 30 µM (inactive) | > 30 µM (inactive) | > 30 µM (inactive) | > 30 µM (inactive) | > 30 µM (inactive) | > 30 µM (inactive) | > 30 µM (inactive) | > 30 µM (inactive)
CCN1CCN(Cc2ccc(-c3cc4c(N[C@H](C)c5ccccc5)ncnc4[nH]3)cc2)CC1 [AEE-788] | > 30 µM (inactive) | > 30 µM (inactive) | > 30 µM (inactive) | > 30 µM (inactive) | > 30 µM (inactive) | > 30 µM (inactive) | > 30 µM (inactive) | > 30 µM (inactive) | > 30 µM (inactive) | > 30 µM (inactive) | > 30 µM (inactive) | > 30 µM (inactive) | > 30 µM (inactive) | > 30 µM (inactive) | > 30 µM (inactive) | > 30 µM (inactive)
CNC(=O)c1ccc(-c2cnc3ncc(Cc4ccc5ncccc5c4)n3n2)cc1F [CAPMATINIB] | > 30 µM (inactive) | > 30 µM (inactive) | > 30 µM (inactive) | > 30 µM (inactive) | > 30 µM (inactive) | > 30 µM (inactive) | > 30 µM (inactive) | > 30 µM (inactive) | > 30 µM (inactive) | > 30 µM (inactive) | > 30 µM (inactive) | > 30 µM (inactive) | > 30 µM (inactive) | > 30 µM (inactive) | > 30 µM (inactive) | > 30 µM (inactive)
CN1CCC(COc2cnc(-c3cccc(Cn4nc(-c5cccc(C#N)c5)ccc4=O)c3)nc2)CC1 [TEPOTINIB] | > 30 µM (inactive) | > 30 µM (inactive) | > 30 µM (inactive) | > 30 µM (inactive) | > 30 µM (inactive) | > 30 µM (inactive) | > 30 µM (inactive) | > 30 µM (inactive) | > 30 µM (inactive) | > 30 µM (inactive) | > 30 µM (inactive) | > 30 µM (inactive) | > 30 µM (inactive) | > 30 µM (inactive) | > 30 µM (inactive) | > 30 µM (inactive)

Second part, the compound after the results:

Kd (DNA topoisomerase 2-beta) | Kd (TGF-beta receptor type-2) | Kd [1] | Kd [2] | Kd [3] | Kd [4] | Kd [5] | Kd [6] | Kd [7] | Kd [8] | Kd [9] | Kd [10] | Kd [11] | Kd [12] | Kd [13] | Kd [14] | SMILES
> 30 µM (inactive) | > 30 µM (inactive) | > 30 µM (inactive) | > 30 µM (inactive) | > 30 µM (inactive) | > 30 µM (inactive) | > 30 µM (inactive) | > 30 µM (inactive) | > 30 µM (inactive) | > 30 µM (inactive) | > 30 µM (inactive) | > 30 µM (inactive) | > 30 µM (inactive) | > 30 µM (inactive) | > 30 µM (inactive) | > 30 µM (inactive) | CNC(=O)CN1CCC(Oc2cc3c(Nc4cccc(Cl)c4F)ncnc3cc2OC)CC1 [SAPITINIB]
> 30 µM (inactive) | > 30 µM (inactive) | > 30 µM (inactive) | > 30 µM (inactive) | > 30 µM (inactive) | > 30 µM (inactive) | > 30 µM (inactive) | > 30 µM (inactive) | > 30 µM (inactive) | > 30 µM (inactive) | 5.58 µM (active) | > 30 µM (inactive) | > 30 µM (inactive) | > 30 µM (inactive) | > 30 µM (inactive) | > 30 µM (inactive) | COc1cc(OC)c(/C=C/S(=O)(=O)Cc2ccc(OC)c(NCC(=O)O)c2)c(OC)c1 [RIGOSERTIB]
> 30 µM (inactive) | > 30 µM (inactive) | > 30 µM (inactive) | > 30 µM (inactive) | > 30 µM (inactive) | > 30 µM (inactive) | > 30 µM (inactive) | > 30 µM (inactive) | > 30 µM (inactive) | > 30 µM (inactive) | > 30 µM (inactive) | > 30 µM (inactive) | > 30 µM (inactive) | > 30 µM (inactive) | > 30 µM (inactive) | > 30 µM (inactive) | CN1N=C(N)c2cn([C@@H]3O[C@H](COP(=O)(O)O)[C@@H](O)[C@H]3O)c3ncnc1c23 [TRICIRIBINE PHOSPHATE]
